From US20080267948A1, “Croos-B Structure Binding Compounds” (priority 2005, published 2008)
Entries after “also recorded” stand apart in the source; their conditions may differ.

How the values were obtained:
[1] = target: T1, heat-denatured misfolded ovalbumin (DOVA) (Gallus gallus, UniProt P01012); assay: ELISA binding of tPA to immobilized misfolded ovalbumin after pre-incubation with compounds; set-up: species or system chicken; conditions: for influence on tPA binding to immobilized misfolded OVA: misfolded OVA first overlayed with compound (concentration series), then tPA; for activity at 500 µg/mL: read-out: % tPA binding (after compound incubation), DOVA
T1 construct: purchased Sigma A5503
T1 sequence (P01012 2-386 limits assumed): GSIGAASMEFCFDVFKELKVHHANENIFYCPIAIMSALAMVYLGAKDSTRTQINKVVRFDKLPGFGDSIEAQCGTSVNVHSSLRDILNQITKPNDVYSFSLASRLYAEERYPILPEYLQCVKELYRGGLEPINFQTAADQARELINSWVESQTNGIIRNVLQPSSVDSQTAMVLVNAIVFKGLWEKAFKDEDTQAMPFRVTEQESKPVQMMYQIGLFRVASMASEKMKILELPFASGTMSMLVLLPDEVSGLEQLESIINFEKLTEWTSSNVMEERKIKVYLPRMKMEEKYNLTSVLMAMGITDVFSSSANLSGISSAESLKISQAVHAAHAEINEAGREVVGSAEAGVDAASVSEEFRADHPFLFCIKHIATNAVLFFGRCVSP
Protocol: (§1) Compounds were now diluted 10× in PBS/0.1% Tween20 (500 μg/ml compound). […] With this approach a further selection of the compounds was achieved. Now, compounds that at least interact with HB-AGE are selected. With the selection, similar binding assays are performed with misfolded OVA and Aβ. Finally, concentration series of the selected compounds are used in the binding studies.

ovalbumin = target: T2, ovalbumin (Gallus gallus, UniProt P01012); assay: Transmission electron microscopy of ovalbumin heated in the presence of small compounds; set-up: species or system chicken; conditions: 1 mg/ml ovalbumin heated with 1 mg/ml compound
T2 construct: purchased Sigma A5503
T2 sequence (P01012 1-386): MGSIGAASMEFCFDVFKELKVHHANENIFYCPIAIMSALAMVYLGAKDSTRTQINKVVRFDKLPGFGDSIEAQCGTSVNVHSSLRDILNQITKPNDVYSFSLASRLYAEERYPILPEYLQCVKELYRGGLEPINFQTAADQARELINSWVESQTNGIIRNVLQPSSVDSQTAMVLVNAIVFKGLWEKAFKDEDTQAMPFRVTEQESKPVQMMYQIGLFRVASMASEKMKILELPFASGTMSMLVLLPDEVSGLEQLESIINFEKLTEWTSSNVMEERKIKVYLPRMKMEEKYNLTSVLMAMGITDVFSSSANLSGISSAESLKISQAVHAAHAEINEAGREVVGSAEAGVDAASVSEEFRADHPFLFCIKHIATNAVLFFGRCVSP
Protocol: For TEM analyses grids were prepared according to standard procedures. Ovalbumin samples at 1 mg/ml were applied to 100-mesh copper grids with carbon coated Formvar (Merck, Germany), and subsequently washed with PBS and H2O. Grids were applied to droplets of 2% (m/v) methylcellulose with 0.4% (m/v) uranylacetate pH 4. After a 2-minutes incubation grids were dried on a filter. Images were recorded at 80 kV, at suitable magnifications on a JEM-1200EX electron microscope (JEOL, Japan).

Hb-AGE = target: T3, Hb-AGE (Homo sapiens, UniProt P68871+P69905); assay: ELISA binding of tPA to immobilized Hb-AGE after pre-incubation with compounds; conditions: Hb-AGE first overlayed with compound (concentration series), then tPA
T3 construct: purchased Sigma-Aldrich H7379
Protocol: Compounds were now diluted 10× in PBS/0.1% Tween20 (500 μg/ml compound). […] With the selection, similar binding assays are performed with misfolded OVA and Aβ. Finally, concentration series of the selected compounds are used in the binding studies.

[2] = target: T4, Hb-AGE (glucose-6-phosphate modified human haemoglobin) (Homo sapiens, UniProt P68871+P69905); assay: ELISA binding of tPA to immobilized Hb-AGE, compounds co-incubated with tPA; conditions: compound mixed with tPA, control without compound = 100
T4 construct: purchased Sigma-Aldrich H7379
Protocol: The small compound library is depicted in Tables 4-5. […] Binding experiments were performed in single wells per compound, in a duplicate experiment. Binding data obtained with this duplicate experiment was averaged.
• 1. […] Coat buffer in control wells. • 2. wash three times with wash buffer • 3. Block all wells with 300 μl 0.5*recommended concentration Roche blocking reagent for 30 minutes at room temperature, with agitation • 4. wash twice • 5. […] Incubate for 30 minutes at room temperature, with agitation • 7. wash five times with TBS/0.1% Tween20 • 8. […] Incubate for 30 minutes at room temperature, with agitation • 10. wash five times with TBS/0.1% Tween20 • 11. Fill wells with 3000× diluted horse raddish peroxidase-labeled polyclonal rabbit anti-mouse antibody (RAMPO, DAKOCytomation) • 12. Incubate for 20 minutes at room temperature, with agitation • 13. Wash five times with TBS/0.1% Tween20 • 14. Wash twice with PBS • 15. Stain with 100 μl TMB, stop with 50 μl 10% H2SO4 • 16. Read absorbance at 450 nm

amyloid-β(1-40) E22Q = target: T5, amyloid-β(1-40) E22Q (Homo sapiens, UniProt P05067, E693Q); assay: ELISA binding of tPA to immobilized Aβ after pre-incubation with compounds; conditions: for % tPA binding (after compound incubation), Aβ: 1 μg/ml coated Aβ first exposed to 500 μg/ml compound, then 80 nM tPA, control = 100
T5 construct: For similar ELISA's with DOVA and Aβ(1-40) E22Q, 1 μg/ml DOVA or Aβ was coated; purchased Peptide facility, Dutch Cancer Institute, Amsterdam; host or cells: synthetic peptide
Protocol: as §1

tPA/plasminogen = target: T6, tPA/plasminogen (Homo sapiens, UniProt P00750); assay: tPA/plasminogen activation by OVA heated in the presence of compounds (substrate PNAPEP1751); assay type: biochemical; conditions: 25 μg/ml OVA, 25 μg/ml compound, […] DMSO
T6 construct: purchased Boehringer Ingelheim Actilyse
Protocol: Heated OVA, either in PBS/1% DMSO (positive control), or in the same buffer in the presence of 1 mg/ml of the compounds, was used 40-fold diluted in the assay. Negative control was buffer without OVA. […] In addition, it was assessed whether the compounds interfere with absorbance readings at 405 nm, with converted chromogenic substrate. […] The yellow solution is divided over wells of an ELISA plate. […] Signals are compared and related to the control.

heat-denatured ovalbumin = target: T7, heat-denatured ovalbumin (Gallus gallus, UniProt P01012); assay: Thioflavin T fluorescence of ovalbumin and small compounds; set-up: species or system chicken; conditions: 1 mg/ml compound, 1 mg/ml OVA
T7 construct: purchased Sigma A5503
T7 sequence (P01012 1-386): T2 sequence (P01012 1-386)
Protocol: To establish the enhancement of Thioflavin T fluorescence by ovalbumin preparations, 90 μl of 25 μM ThT-solution in 50 mM Glycine buffer (pH 9.0) was added to 10 μl sample in duplicate wells of black 96-wells plates. Heat-denatured ovalbumin at 1 mg/ml in PBS with no addition, DMSO at a final concentration of 1% v/v, or 1 mg/ml of the compounds listed in Table 7, was used. Compound stocks are 100 mg/ml in DMSO. In addition, ovalbumin at 1 mg/ml with the same additions was first heat denatured and subsequently used in the fluorescence assay. Heat denaturation was according to the protocol given above. Fluorescence of duplicates was measured on a Thermo Fluoroskan Ascent 2.5, at 435 nm excitation and 485 nm emission wavelengths.

T4 sequence (P69905 2-142 limits assumed): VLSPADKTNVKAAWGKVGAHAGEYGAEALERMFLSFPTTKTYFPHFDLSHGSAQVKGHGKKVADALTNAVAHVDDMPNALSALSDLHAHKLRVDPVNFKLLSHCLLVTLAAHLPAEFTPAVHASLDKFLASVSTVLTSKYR
T4 sequence (P68871 2-147 limits assumed): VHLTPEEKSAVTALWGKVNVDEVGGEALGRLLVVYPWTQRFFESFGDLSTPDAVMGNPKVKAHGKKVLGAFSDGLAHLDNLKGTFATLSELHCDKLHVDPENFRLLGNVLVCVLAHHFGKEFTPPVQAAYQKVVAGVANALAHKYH
T5 sequence (P05067 672-711 E693Q): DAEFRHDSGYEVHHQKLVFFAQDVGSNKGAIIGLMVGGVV
T3 sequence (P69905 2-142 limits assumed): as the sequence (P69905 2-142 limits assumed) above
T3 sequence (P68871 2-147 limits assumed): as the sequence (P68871 2-147 limits assumed) above
T6 sequence (P00750 36-562): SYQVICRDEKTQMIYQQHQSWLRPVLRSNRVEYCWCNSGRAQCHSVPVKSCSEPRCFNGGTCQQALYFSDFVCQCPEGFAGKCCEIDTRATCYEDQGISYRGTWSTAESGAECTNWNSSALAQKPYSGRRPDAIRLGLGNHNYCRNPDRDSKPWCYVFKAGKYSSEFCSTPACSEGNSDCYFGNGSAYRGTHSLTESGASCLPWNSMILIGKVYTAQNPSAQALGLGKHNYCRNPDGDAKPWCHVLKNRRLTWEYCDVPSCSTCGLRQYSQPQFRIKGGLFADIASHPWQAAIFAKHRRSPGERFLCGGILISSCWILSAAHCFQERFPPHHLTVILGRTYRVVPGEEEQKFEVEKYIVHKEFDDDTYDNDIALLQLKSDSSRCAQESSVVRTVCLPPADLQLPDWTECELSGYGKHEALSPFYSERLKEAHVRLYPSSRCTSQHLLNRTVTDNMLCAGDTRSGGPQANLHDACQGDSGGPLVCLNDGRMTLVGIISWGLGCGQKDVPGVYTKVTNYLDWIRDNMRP

| Structure (SMILES) | % tPA binding to Hb-AGE (co-incubation) [2] [%] | % tPA binding (after compound incubation), Aβ (amyloid-β(1-40) E22Q) [%] | activity at 500 µg/mL [1] [%] | also measured |
| --- | --- | --- | --- | --- |
| COC(=O)[C@H]1[C@H]2C[C@H]3c4[nH]c5ccccc5c4CCN3C[C@@H]2CC[C@@H]1O [compound 126, corynanthine] |  |  |  | influence on tPA binding to immobilized misfolded OVA [1]: Stimulated tPA binding to immobilized misfolded protein; appearance of ovalbumin heated in the presence of compound on TEM image (ovalbumin): No protein visible |
| Br.CC(=O)N1C=C(C2CCCCN2)CCC1 (centres unmarked) [compound 217, Ammophedrine HBr] |  |  |  | influence on tPA binding to immobilized Hb-AGE (Hb-AGE): Inhibited tPA binding to immobilized misfolded protein (Hb-; influence on tPA binding to immobilized misfolded OVA [1]: Inhibited tPA binding to immobilized misfolded protein (Hb-; appearance of ovalbumin heated in the presence of compound on TEM image (ovalbumin; HBr): less OVA aggregates after heating in the presence of the; also recorded: Only small amorphous aggregates like Control |
| COc1cc2c(cc1OC)-c1c(OC)c(OC)c(CO)c3c1C(C2)N(C)CC3 (centres unmarked) [compound 71] | 50 |  |  |  |
| COc1cc2c(cc1O)CC1c3c(cc(O)c(OC)c3-2)CCN1C (centres unmarked) [compound 53] | 55 |  |  |  |
| COc1cc2c(cc1O)-c1c(O)c(OC)cc3c1[C@H](C2)N(C)CC3 [compound 203, Bracteoline] | 55 | 85 | 105 |  |
| Cn1ccc(O)c(C#N)c1=O [compound 51] |  |  |  | influence on tPA binding to immobilized misfolded OVA [1]: Stimulated tPA binding to immobilized misfolded protein; influence on tPA/plasminogen activation by OVA pre-heated in the presence of compound (tPA/plasminogen): Inhibition of tPA/plasminogen activation by OVA pre-heated |
| Cc1ccc(C(=O)[C@@H]2[C@H]3C4COC(O4)C(=O)[C@@H]3[C@H]3C=Cc4ccccc4N32)cc1 (some centres unmarked) [compound 15] |  |  |  | influence on tPA binding to immobilized Aβ (amyloid-β(1-40) E22Q; Aβ first overlayed with compound (concentration series), then tPA): Inhibited tPA binding to immobilized misfolded protein (Aβ); influence on Thioflavin T fluorescence with misfolded OVA (heat-denatured ovalbumin): Inhibition on Thioflavin T fluorescence with misfolded OVA |
| COc1ccc2c(c1O)-c1c(OC)c(OC)cc3c1[C@H](C2)N(C)CC3 [compound 138] | 50 |  | 65 |  |
| COc1cc2c(Cc3c4c5c(cc(OC)c(OC)c5c5c(OC)c(OC)ccc35)CCN4C)c3c4c(cc(OC)c(OC)c4c2cc1OC)CCN3C [compound 210, dehydroglaucine derivative] | 80 | 30 | 90 |  |
| COc1cc2c(cc1OC)-c1c(OC)c(OC)c(C=O)c3c1[C@H](C2)N(C)CC3 [compound 213, dehydroglaucine derivative] | 60 | 210 | 105 |  |
| COc1cc2c(cc1OC)-c1c(OC)c(OC)cc3ccnc(c13)C2=O [compound 204, 7-Oxoglaucine] | 70 | 55 | 80 |  |
| CN1CCc2cccc3c2C1Cc1ccc(O)c(O)c1-3 (centres unmarked) [compound 85] |  |  | 135 |  |
